US8455186B2, “Method of detection of microorganisms with enhanced bacteriophage amplification” (priority 2007, dated 2013)

How the values were obtained:
S. aureus strains [1] = test: Bacteriophage mean amplification versus sodium pyruvate concentration (FIG. 5); assay type: cell-based, Staphylococcus aureus
[2] = test system: panel of 32 S. aureus strains; test: Bacteriophage sensitivity versus sodium pyruvate concentration (FIG. 4)
S. aureus strains [3] = test: Stimulation of bacteriophage amplification by fatty acid compounds, all hosts tested; conditions: for effect on bacteriophage amplification: fatty acid compound added to growth medium
[4] = test system: clinical MRSA (methicillin-resistant S. aureus) isolates; test: Phage amplification in MRSA strains with cefoxitin and/or lauric acid (FIG. 3)
Excerpt: In FIG. 3, each symbol represents a clinical MRSA (methicillin-resistant S. aureus) isolate able to grow in the presence of β-lactam antibiotics such as cefoxitin. The first column 62 (circles) indicates amplification by MRSA strains with no cefoxitin and no lauric acid. The second column 64 (squares) indicates amplification with added cefoxitin. […] The third column 66 (diamonds) indicates amplification with added lauric acid. The fourth column 70 (x's) indicate amplification with added lauric acid and cefoxitin.

[5] = test system: clinical isolates of S. aureus (poorest hosts for bacteriophage amplification); test: Bacteriophage amplification (MP112 and MP115) on poor or restrictive S. aureus hosts with lauric acid (FIG. 1)
Excerpt: The 28 strains in this study were chosen from a collection of 202 clinical isolates as the poorest hosts for bacteriophage amplification.

[6] = test system: clinical isolates of S. aureus (good bacteriophage hosts); test: Bacteriophage amplification on permissive (good) S. aureus hosts with lauric acid (FIG. 2)

CC(=O)C(=O)[O-].[Na+] [sodium pyruvate]
effect on mean amplification of the bacteriophage (S. aureus strains [1]; about 10 mmol/L to 60 mmol/L sodium pyruvate): increased significantly
mean amplification of the bacteriophage (S. aureus strains [1]; about 30 mmol/L sodium pyruvate, about 92 without): 150
effect on phage sensitivity ([2]; 10 mmol/L to 50 mmol/L sodium pyruvate, wide variety of S. aureus strains): significantly increase phage sensitivity
phage sensitivity ([2]; 15 mmol/L to 31 mmol/L sodium pyruvate): above 90%
increase of sensitivity over sensitivities without sodium pyruvate ([2]; 27 mmol/L sodium pyruvate): about 15%

CCCCCCCCCC(=O)O [capric acid]
effect on bacteriophage amplification (S. aureus strains [3]): positively stimulate bacteriophage amplification

CCCCCCCCCCCC(=O)OCC(O)CO (stereo not shown) [glycerol monolaurate]
effect on bacteriophage amplification (S. aureus strains [3]): positively stimulate bacteriophage amplification

CCCCCCCC(=O)O [caprylic acid]
effect on bacteriophage amplification (S. aureus strains [3]): positively stimulate bacteriophage amplification

CCCCCCCCCCCCCC(=O)O [myristic acid]
effect on bacteriophage amplification (S. aureus strains [3]): positively stimulate bacteriophage amplification

CO[C@@]1(NC(=O)Cc2cccs2)C(=O)N2C(C(=O)O)=C(COC(N)=O)CS[C@@H]21 [cefoxitin, reference compound]
effect on phage amplification in MRSA strains ([4]; added cefoxitin, no lauric acid): suppression of phage amplification

CCCCCCCCCCCC(=O)O [lauric acid]
average level of amplification (output pfu/ml divided by input pfu/ml) ([5]; 30 μg/ml lauric acid, 28 poor-host strains, four hours at 35°, three-fold with no lauric acid): 45 fold
effect on amplification on poor or restrictive S. aureus hosts ([5]; FIG. 1 legend): improves amplification
effect on phage amplification in MRSA strains ([4]; added lauric acid and cefoxitin): relieves suppression of phage amplification by cefoxitin
effect on bacteriophage amplification on permissive S. aureus hosts ([6]; FIG. 2 legend): increases bacteriophage amplification
average amplification ([6]; with the addition of lauric acid (5-30 μg/ml), good hosts, 69-fold without): over 100 fold
S. aureus strains tested showing stimulation of bacteriophage amplification (S. aureus strains [3]; in response to lauric acid, strains tested to date): more than 80%

CCCCC/C=C\C/C=C\CCCCCCCC(=O)O [linoleic acid]
effect on bacteriophage amplification (S. aureus strains [3]): positively stimulate bacteriophage amplification

CCCCCC(=O)O [caproic acid]
effect on bacteriophage amplification (S. aureus strains [3]): positively stimulate bacteriophage amplification

CCCCCCCC/C=C\CCCCCCCC(=O)O [oleic acid]
effect on bacteriophage amplification (S. aureus strains [3]): positively stimulate bacteriophage amplification
